Key:
[1] = biological target: T1, IKKepsilon (Homo sapiens, UniProt Q14164); experiment: IKK kinase test (IKKepsilon) (384-well flashplate assay); assay type: biochemical; settings: 1 nM IKK, 10 μM ATP, 30° C., 120 min
T1 sequence (Q14164 1-716): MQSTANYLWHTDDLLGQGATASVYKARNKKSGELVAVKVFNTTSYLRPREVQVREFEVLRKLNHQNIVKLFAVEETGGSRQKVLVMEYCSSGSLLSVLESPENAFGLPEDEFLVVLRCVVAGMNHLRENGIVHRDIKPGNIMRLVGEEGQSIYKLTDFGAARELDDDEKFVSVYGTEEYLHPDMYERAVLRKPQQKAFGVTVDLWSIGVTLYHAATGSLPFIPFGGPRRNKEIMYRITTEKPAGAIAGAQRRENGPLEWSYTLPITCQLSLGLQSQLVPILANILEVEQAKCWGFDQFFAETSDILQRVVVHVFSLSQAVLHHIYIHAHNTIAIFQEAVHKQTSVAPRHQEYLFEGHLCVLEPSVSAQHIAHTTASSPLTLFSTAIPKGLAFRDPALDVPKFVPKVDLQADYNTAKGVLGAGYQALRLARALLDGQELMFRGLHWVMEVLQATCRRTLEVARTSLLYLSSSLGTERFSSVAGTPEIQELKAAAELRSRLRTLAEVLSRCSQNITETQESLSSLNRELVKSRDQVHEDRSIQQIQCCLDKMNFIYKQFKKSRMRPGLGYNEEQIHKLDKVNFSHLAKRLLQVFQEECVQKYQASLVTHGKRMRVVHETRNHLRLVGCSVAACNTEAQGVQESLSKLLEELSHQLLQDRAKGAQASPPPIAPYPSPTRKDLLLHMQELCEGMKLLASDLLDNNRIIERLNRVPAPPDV
Procedure: IKK—Kinase Test (IKKepsilon)
The kinase assay is performed as 384-well flashplate assay.
1 nM IKK, 800 nM biotinylated I B (19-42) peptide (biotin-C6-C6-[…]) and 10 μM ATP (with 0.3 μCi of ^33P-ATP/well) are incubated in a total volume of 50 μl (10 mM MOPS, 10 mM magnesium acetate, 0.1 mM EGTA, 1 mM dithiothreitol, 0.02% of Brij35, 0.1% of BSA, 0.1% of BioStab, pH 7.5) with or without test substance at 30° C. for 120 min. The reaction is stopped using 25 μl of 200 mM EDTA solution, filtered off with suction after 30 min at room temperature, and the wells are washed 3 times with 100 μl of 0.9% NaCl solution. The non-specific proportion of the kinase reaction (blank) is determined using 3 μM BX-795. Radioactivity is measured in the Topcount. IC50 values are calculated using RS1.

[2] = system: A2780; experiment: Vitality assay (tumour cell proliferation/vitality, Alamar Blue), A2780; assay type: cell-based; settings: Homo sapiens, 96 h, A2780 cells, 4 days
Procedure: (§1) In the present experiment description, the inhibition of tumour cell proliferation/tumour cell vitality by active compounds is described.
(§2) The cells are sown in a suitable cell density in microtitre plates (96-well format) and the test substances are added in the form of a concentration series. After four further days of cultivation in serum-containing medium, the tumour cell proliferation/tumour cell vitality can be determined by means of an Alamar Blue test system.
(§3) The cells are cultivated in medium. At intervals of several days, the cells are detached from the culture dishes with the aid of trypsin solution and sown in suitable dilution in fresh medium. The cells are cultivated at 37° Celsius and 10% CO2. […]
(§4) In each case, 20 μl of Alamar Blue reagent are added per well, and the microtitre plates are incubated, for example, for a further seven hours in a CO2 incubator (at 37° C. and 10% CO2). The plates are measured in a reader with a fluorescence filter at a wavelength of 540 nm. […]
(§5) The absorbance value of the medium control (no cells and test substances used) is subtracted from all other absorbance values. The controls (cells without test substance) are set equal to 100 percent, and all other absorbance values are set in relation thereto (for example in % of control):
(§6) IC50 values (50% inhibition) are determined with the aid of statistics programs, such as, for example, RS1.

[3] = biological target: T2, PDK1 (Homo sapiens, UniProt O15530); experiment: Test for the inhibition of PDK1 (flashplate, 33P-ATP); assay type: biochemical; settings: His6-PDK1, 4 μM ATP, 30° C., 60 min
T2 construct: His6 (N)
T2 sequence (O15530 51-556 limits assumed): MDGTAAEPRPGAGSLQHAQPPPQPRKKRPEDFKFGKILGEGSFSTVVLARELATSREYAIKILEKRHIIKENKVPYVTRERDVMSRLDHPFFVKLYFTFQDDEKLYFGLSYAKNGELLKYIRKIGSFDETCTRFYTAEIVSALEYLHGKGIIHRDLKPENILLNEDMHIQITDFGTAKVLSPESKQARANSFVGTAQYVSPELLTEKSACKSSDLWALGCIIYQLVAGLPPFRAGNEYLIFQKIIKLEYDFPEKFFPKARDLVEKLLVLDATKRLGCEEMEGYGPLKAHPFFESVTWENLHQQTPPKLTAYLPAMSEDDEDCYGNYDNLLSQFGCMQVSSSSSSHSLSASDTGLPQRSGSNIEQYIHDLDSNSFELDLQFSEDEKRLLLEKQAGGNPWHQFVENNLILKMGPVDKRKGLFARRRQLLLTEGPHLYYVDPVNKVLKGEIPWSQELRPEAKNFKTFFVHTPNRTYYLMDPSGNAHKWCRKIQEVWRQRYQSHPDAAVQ
Procedure: 4.0 Test for the Inhibition of PDK1
The experimental batches are carried out in a flashplate system with 384 wells/microtitration plate.
In each case, the PDK1 sample His6-PDK1(1-50)(3.4 nM), the PDK1 substrate biotin-bA-bA-[…] (400 nM), 4 μM ATP (with 0.2 μCi of ^33P-ATP/well) and the test substance in 50 μl of conventional experimental solution per well are incubated at 30° C. for 60 min. The test substances are employed in corresponding concentrations (if desired in a dilution series). The control is carried out without test substance. The reaction is stopped using standard methods and washed. The activity of the kinase is measured via the incorporated radioactivity in top count. In order to determine the non-specific kinase reaction (blank value), the experimental batches are carried out in the presence of 100 nM staurosporine.
The radioactivity (decompositions per minute) of the blank value (no use of test substance in the presence of staurosporine) is subtracted from all other radioactivity values. The controls (kinase activity without test substance) are set equal to 100 percent and all other radioactivity values (after subtracting the blank value) are expressed set in relation thereto (for example in % of the control).
IC50 values (50% inhibition) are determined with the aid of statistics programmes, such as, for example, RS1.

[4] = system: HCT 116; experiment: Vitality assay (tumour cell proliferation/vitality, Alamar Blue), HCT 116; assay type: cell-based; settings: Homo sapiens, 96 h, HCT 116 cells, 4 days
Procedure: as §1, §2, §3, §4, §5, §6

[5] = biological target: T3, TANK binding kinase (TBK1) (Homo sapiens, UniProt Q9UHD2); experiment: TBK1 kinase test (384-well flashplate assay); assay type: biochemical; settings: 0.6 nM TBK1, 10 μM ATP, 30° C., 120 min
T3 sequence (Q9UHD2 1-729): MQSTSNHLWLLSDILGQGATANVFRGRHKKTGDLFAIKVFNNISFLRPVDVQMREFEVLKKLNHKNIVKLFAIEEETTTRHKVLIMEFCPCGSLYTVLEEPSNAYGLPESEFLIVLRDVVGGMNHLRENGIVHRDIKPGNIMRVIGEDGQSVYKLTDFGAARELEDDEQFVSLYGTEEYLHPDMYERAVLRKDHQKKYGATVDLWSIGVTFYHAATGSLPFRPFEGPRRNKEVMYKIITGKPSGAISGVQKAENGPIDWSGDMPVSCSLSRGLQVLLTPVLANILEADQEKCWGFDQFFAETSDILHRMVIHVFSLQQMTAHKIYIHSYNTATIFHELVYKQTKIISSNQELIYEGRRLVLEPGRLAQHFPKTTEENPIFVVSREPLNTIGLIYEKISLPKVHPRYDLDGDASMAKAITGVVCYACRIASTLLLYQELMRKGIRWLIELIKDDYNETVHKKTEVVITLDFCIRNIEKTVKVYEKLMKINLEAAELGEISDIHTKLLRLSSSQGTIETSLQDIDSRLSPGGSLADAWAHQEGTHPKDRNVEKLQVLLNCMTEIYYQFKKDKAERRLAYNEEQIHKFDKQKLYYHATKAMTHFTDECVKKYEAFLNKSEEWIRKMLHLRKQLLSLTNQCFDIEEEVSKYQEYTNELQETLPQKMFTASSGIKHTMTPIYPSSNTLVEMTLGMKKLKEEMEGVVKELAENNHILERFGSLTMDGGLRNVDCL
Procedure: The kinase assay is performed as 384-well flashplate assay. 0.6 nM TANK binding kinase (TBK1), 800 nM biotinylated MELK-derived peptide (biotin-Ah-Ah-[…]) and 10 μM ATP (with 0.25 μCi of ^33P-ATP/well) are incubated in a total volume of 50 μl (10 mM MOPS, 10 mM magnesium acetate, 0.1 mM EGTA, 1 mM DTT, 0.02% of Brij35, 0.1% of BSA, pH 7.5) with or without test substance at 30° C. for 120 min. The reaction is stopped using 25 μl of 200 mM EDTA solution, filtered off with suction after 30 min at room temperature, and the wells are washed 3 times with 100 μl of 0.9% NaCl solution. The non-specific proportion of the kinase reaction (blank) is determined using 100 nM staurosporine. Radioactivity is measured in the Topcount. IC50 values are calculated using RS1.

Row | Compound | IC50 [1] [µM] | IC50 [2] [µM] | IC50 [3] [µM] | IC50 [4] [µM] | IC50 [5] [µM]
1 | COCCOc1ncnc2[nH]cc(-c3cn(Cc4ccccc4)nn3)c12 [Compound A1, 5-(1-benzyl-1H-1,2,3-triazol-4-yl)-4-(2-methoxyethoxy)-7H-pyrrolo[2,3-d]pyrimidine] | 1 to 10 | 1 to 10 | 0.01 to 1 | 1 to 10 | 0.01 to 1
2 | c1ccc(Cn2cc(-c3c[nH]c4ncncc34)nn2)cc1 [Compound A6, 5-(1-benzyl-1H-1,2,3-triazol-4-yl)-7H-pyrrolo[2,3-d]pyrimidine] | 1 to 10 |  | 1 to 10 |  | 1 to 10
3 | COc1ncnc2[nH]cc(-c3cn(Cc4ccccc4)nn3)c12 [Compound A2] | 0.01 to 1 |  | 0.01 to 1 |  | 0.01 to 1
4 | Fc1cccc(C(CCN2CCCCC2)n2cc(-c3c[nH]c4ncncc34)nn2)c1F (centres unmarked) [Compound A9, 5-{1-[1-(2,3-difluorophenyl)-3-piperidin-1-ylpropyl]-1H-1,2,3-triazol-4-yl}-7H-pyrrolo[2,3-d]pyrimidine] | 1 to 10 |  | 1 to 10 |  | > 10
